Experimental data published in patent US11267822B2, “BET bromodomain protein degraders with cleavable linkers” (THE REGENTS OF THE UNIVERSITY OF MICHIGAN, priority 2017, dated 2022).

Legend:
MOLM13 = assay: Cell growth inhibition, CellTiter-Glo Luminescent Cell Viability Assay, MOLM13; assay type: cell-based; details: MOLM13 cells, 4 days
Experimental: (§1) Cell growth inhibitory activity of representative Compounds of the Disclosure was determined using the CellTiter-Glo® Luminescent Cell Viability Assay. Cells were seeded in 384-well white opaque cell culture plates at a density of 2,000 cells/well with serially diluted compounds and incubated at 37° C. in an atmosphere of 95% air and 5% CO2 for 4 days. Cell viability was determined using the CellTiter-Glo® Luminescent Cell Viability Assay Kit (Promega, Madison, Wis.) according to the manufacture's instruction. Briefly, a volume of CellTiter-Glo® Reagent equal to the volume of cell culture medium was added to each well, and then the plates were incubated at room temperature for 10-20 minutes. The luminescent signal was measured using a Tecan Infinite M1000 multimode microplate reader (Tecan, Morrisville, N.C.). The half maximal inhibitory concentration (IC50) in Table 3 was calculated using the GraphPad Prism 5 software (GraphPad Software, La Jolla, Calif.).

MDA-MB-231 = assay: Cell growth inhibition, CellTiter-Glo Luminescent Cell Viability Assay, MDA-MB-231; assay type: cell-based; details: MDA-MB-231 cells, 4 days
Experimental: as §1

Row | Structure (SMILES) | IC50 (MOLM13; Homo sapiens, MOLM-13, 96 h) | IC50 (MDA-MB-231; Homo sapiens, MDA-MB-231, 96 h) | IC50 (MOLM13) | IC50 (MDA-MB-231)
1 | Cc1c(C#Cc2cnn(CCCC(=O)OCCN3CCC(Nc4cccc5c4CN(C4CCC(=O)NC4=O)C5=O)CC3)c2)sc2c1C(c1ccc(Cl)cc1)=N[C@@H](C)c1nnc(C)n1-2 (stereo partly drawn) [Cpd. No. 11, 2-(4-((2-(2,6-dioxopiperidin-3-yl)-1-oxoisoindolin-4-yl)amino)piperidin-1-yl)ethyl 4-(4-(((S)-4-(4-chlorophenyl)-3,6,9-trimethyl-6H-thieno[3,2-f][1,2,4]triazolo[4,3-a][1,4]diazepin-2-yl)ethynyl)-1H-pyrazol-1-yl)butanoate] | 0.06 nM | 0.1 nM | – | –
2 | Cc1c(C#Cc2cnn(CCCC(=O)OCCOCCCN3CCC(Nc4cccc5c4CN(C4CCC(=O)NC4=O)C5=O)CC3)c2)sc2c1C(c1ccc(Cl)cc1)=N[C@@H](CC(=O)N1CCN(C)CC1)c1nnc(C)n1-2 (stereo partly drawn) [compound 2, 2-(3-(4-((2-(2,6-dioxopiperidin-3-yl)-1-oxoisoindolin-4-yl)amino)piperidin-1-yl)propoxy)ethyl 4-(4-(((S)-4-(4-chlorophenyl)-3,9-dimethyl-6-(2-(4-methylpiperazin-1-yl)-2-oxoethyl)-6H-thieno[3,2-f][1,2,4]triazolo[4,3-a][1,4]diazepin-2-yl)ethynyl)-1H-pyrazol-1-yl)butanoate] | 7.5 nM | 19.4 nM | – | –
3 | Cc1c(C#Cc2cnn(CC(=O)OCC#Cc3cccc4c3CN(C3CCC(=O)NC3=O)C4=O)c2)sc2c1C(c1ccc(Cl)cc1)=N[C@@H](C)c1nnc(C)n1-2 (stereo partly drawn) [compound 3, 3-(2-(2,6-dioxopiperidin-3-yl)-1-oxoisoindolin-4-yl)prop-2-yn-1-yl 2-(4-(((S)-4-(4-chlorophenyl)-3,6,9-trimethyl-6H-thieno[3,2-f][1,2,4]triazolo[4,3-a][1,4]diazepin-2-yl)ethynyl)-1H-pyrazol-1-yl)acetate] | – | – | 1.8 nM | 2.1 nM
4 | Cc1c(C#Cc2cnn(CCCC(=O)OCCOCCOCCOCC#Cc3cccc4c3CN(C3CCC(=O)NC3=O)C4=O)c2)sc2c1C(c1ccc(Cl)cc1)=N[C@@H](CC(=O)N1CCN(C)CC1)c1nnc(C)n1-2 (stereo partly drawn) [compound 6, 2-(2-(2-((3-(2-(2,6-dioxopiperidin-3-yl)-1-oxoisoindolin-4-yl)prop-2-yn-1-yl)oxy)ethoxy)ethoxy)ethyl 4-(4-(((S)-4-(4-chlorophenyl)-3,9-dimethyl-6-(2-(4-methylpiperazin-1-yl)-2-oxoethyl)-6H-thieno[3,2-f][1,2,4]triazolo[4,3-a][1,4]diazepin-2-yl)ethynyl)-1H-pyrazol-1-yl)butanoate] | 2.8 nM | 32 nM | – | –
5 | Cc1c(C#Cc2cnn(CCCC(=O)OCCCOCCN3CCC(Nc4cccc5c4CN(C4CCC(=O)NC4=O)C5=O)CC3)c2)sc2c1C(c1ccc(Cl)cc1)=N[C@@H](CC(=O)N1CCN(C)CC1)c1nnc(C)n1-2 (stereo partly drawn) [compound 7, 3-(2-(4-((2-(2,6-dioxopiperidin-3-yl)-1-oxoisoindolin-4-yl)amino)piperidin-1-yl)ethoxy)propyl 4-(4-(((S)-4-(4-chlorophenyl)-3,9-dimethyl-6-(2-(4-methylpiperazin-1-yl)-2-oxoethyl)-6H-thieno[3,2-f][1,2,4]triazolo[4,3-a][1,4]diazepin-2-yl)ethynyl)-1H-pyrazol-1-yl)butanoate] | 9.6 nM | 4.5 nM | – | –

Further lines, results first:

Row | IC50 (MOLM13; Homo sapiens, MOLM-13, 96 h) | IC50 (MDA-MB-231; Homo sapiens, MDA-MB-231, 96 h) | IC50 (MOLM13) | IC50 (MDA-MB-231) | Structure (SMILES)
6 | 1.1 nM | 1.3 nM | – | – | Cc1c(C#Cc2cnn(CCCC(=O)OCCCOCCN3CCC(Nc4cccc5c4CN(C4CCC(=O)NC4=O)C5=O)CC3)c2)sc2c1C(c1ccc(Cl)cc1)=N[C@@H](C)c1nnc(C)n1-2 (stereo partly drawn) [compound 8, 3-(2-(4-((2-(2,6-dioxopiperidin-3-yl)-1-oxoisoindolin-4-yl)amino)piperidin-1-yl)ethoxy)propyl 4-(4-(((S)-4-(4-chlorophenyl)-3,6,9-trimethyl-6H-thieno[3,2-f][1,2,4]triazolo[4,3-a][1,4]diazepin-2-yl)ethynyl)-1H-pyrazol-1-yl)butanoate]
7 | 0.05 nM | 0.08 nM | – | – | Cc1c(C#Cc2cnn(CCCC(=O)OCCN3CCC(Nc4cccc5c4CN(C4CCC(=O)NC4=O)C5=O)CC3)c2)sc2c1C(c1ccc(Cl)cc1)=N[C@@H](CC(=O)N1CCN(C)CC1)c1nnc(C)n1-2 (stereo partly drawn) [compound 12, 2-(4-((2-(2,6-dioxopiperidin-3-yl)-1-oxoisoindolin-4-yl)amino)piperidin-1-yl)ethyl 4-(4-(((S)-4-(4-chlorophenyl)-3,9-dimethyl-6-(2-(4-methylpiperazin-1-yl)-2-oxoethyl)-6H-thieno[3,2-f][1,2,4]triazolo[4,3-a][1,4]diazepin-2-yl)ethynyl)-1H-pyrazol-1-yl)butanoate]
8 | 1.8 nM | 39 nM | – | – | Cc1nnc2n1-c1sc(C#Cc3cnn(CCCOC(=O)CCc4cccc5c4CN(C4CCC(=O)NC4=O)C5=O)c3)c(Cc3ccccc3)c1COC2 (centres unmarked) [compound 17, 3-(4-((3-benzyl-9-methyl-4H,6H-thieno[2,3-e][1,2,4]triazolo[3,4-c][1,4]oxazepin-2-yl)ethynyl)-1H-pyrazol-1-yl)propyl 3-(2-(2,6-dioxopiperidin-3-yl)-1-oxoisoindolin-4-yl)propanoate]
9 | 5.2 nM | 185 nM | – | – | Cc1nnc2n1-c1sc(C#Cc3cnn(CCCC(=O)OCCOCCOCCOCCOc4cccc5c4CN(C4CCC(=O)NC4=O)C5=O)c3)c(Cc3ccccc3)c1COC2 (centres unmarked) [compound 22, 2-(2-(2-(2-((2-(2,6-dioxopiperidin-3-yl)-1-oxoisoindolin-4-yl)oxy)ethoxy)ethoxy)ethoxy)ethyl 4-(4-((3-benzyl-9-methyl-4H,6H-thieno[2,3-e][1,2,4]triazolo[3,4-c][1,4]oxazepin-2-yl)ethynyl)-1H-pyrazol-1-yl)butanoate]
10 | 2.1 nM | 77.9 nM | – | – | Cc1nnc2n1-c1sc(C#Cc3cnn(CCCC(=O)OCOCCCOc4cccc5c4CN(C4CCC(=O)NC4=O)C5=O)c3)c(Cc3ccccc3)c1COC2 (centres unmarked) [compound 23, (3-((2-(2,6-dioxopiperidin-3-yl)-1-oxoisoindolin-4-yl)oxy)propoxy)methyl 4-(4-((3-benzyl-9-methyl-4H,6H-thieno[2,3-e][1,2,4]triazolo[3,4-c][1,4]oxazepin-2-yl)ethynyl)-1H-pyrazol-1-yl)butanoate]
11 | 2.4 nM | 7.3 nM | – | – | Cc1nnc2n1-c1sc(C#Cc3cnn(CCCC(=O)OCCCN4CCC(Nc5cccc6c5CN(C5CCC(=O)NC5=O)C6=O)CC4)c3)c(Cc3ccccc3)c1COC2 (centres unmarked) [compound 25, 3-(4-((2-(2,6-dioxopiperidin-3-yl)-1-oxoisoindolin-4-yl)amino)piperidin-1-yl)propyl 4-(4-((3-benzyl-9-methyl-4H,6H-thieno[2,3-e][1,2,4]triazolo[3,4-c][1,4]oxazepin-2-yl)ethynyl)-1H-pyrazol-1-yl)butanoate]
12 | 0.2 nM | 2 nM | – | – | Cc1nnc2n1-c1sc(C#Cc3ccn(CCC(=O)OCCC#Cc4cccc5c4CN(C4CCC(=O)NC4=O)C5=O)n3)c(Cc3ccccc3)c1COC2 (centres unmarked) [compound 28, 4-(2-(2,6-dioxopiperidin-3-yl)-1-oxoisoindolin-4-yl)but-3-yn-1-yl 3-(3-((3-benzyl-9-methyl-4H,6H-thieno[2,3-e][1,2,4]triazolo[3,4-c][1,4]oxazepin-2-yl)ethynyl)-1H-pyrazol-1-yl)propanoate]
13 | 0.3 nM | 9.8 nM | – | – | Cc1nnc2n1-c1sc(C#Cc3ccn(CCC(=O)OCCCCc4cccc5c4CN(C4CCC(=O)NC4=O)C5=O)n3)c(Cc3ccccc3)c1COC2 (centres unmarked) [compound 29, 4-(2-(2,6-dioxopiperidin-3-yl)-1-oxoisoindolin-4-yl)butyl 3-(3-((3-benzyl-9-methyl-4H,6H-thieno[2,3-e][1,2,4]triazolo[3,4-c][1,4]oxazepin-2-yl)ethynyl)-1H-pyrazol-1-yl)propanoate]
